In patent US20130183239A1, “ISOTOPIC CARBON CHOLINE ANALOGS” (IMPERIAL COLLEGE, priority 2010, published 2013):

Tests used:
[1] = mouse, in vivo, iv
[2] = mouse, in vivo
Description: Radiolabeled metabolites from plasma and tissues were quantified using a method adapted from Smith G, Zhao Y, Leyton J, et al. Radiosynthesis and pre-clinical evaluation of [(18)F]fluoro-[1,2-(2)H(4)]choline. Nucl Med Biol. 2011; 38:39-51. Briefly, tumor-bearing mice under terminal anaesthesia were administered a bolus i.v. injection of one of the following radiotracers: ^11C-choline, ^11C-D4-choline (˜18.5 MBq) or ^18F-D4-choline (˜3.7 MBq), and sacrificed by exsanguination via cardiac puncture at 2, 15, 30 or 60 min post radiotracer injection. For automated radiosynthesis methodology, see Example 22. Tumor, kidney and liver samples were immediately snap-frozen in liquid nitrogen. Aliquots of heparinized blood were rapidly centrifuged (14000 g, 5 min, 4° C.) to obtain plasma. Plasma samples were subsequently snap-frozen in liquid nitrogen and kept on dry ice prior to analysis.
For analysis, samples were thawed and kept at 4° C. immediately before use. To ice cold plasma (200 μl) was added ice cold methanol (1.5 mL) and the resulting suspension centrifuged (14000 g; 4° C.; 3 min). The supernatant was then decanted and evaporated to dryness on a rotary evaporator (bath temperature, 40° C.), then resuspended in HPLC mobile phase (Solvent A: acetonitrile/water/ethanol/acetic acid/1.0 M ammonium acetate/0.1 M sodium phosphate [800/127/68/2/3/10]; 1.1 mL). Samples were filtered through a hydrophilic syringe filter (0.2 μm filter; Millex PTFE filter, Millipore, Mass., USA) and the sample (˜1 mL) then injected via a 1 mL sample loop onto the HPLC for analysis. Tissues were homogenized in ice-cold methanol (1.5 mL) using an Ultra-Turrax T-25 homogenizer (IKA Werke GmbH and Co. KG, Staufen, Germany) and subsequently treated as per plasma samples.
Samples were analyzed on an Agilent 1100 series HPLC system (Agilent Technologies, Santa Clara, Calif., USA), configured as described above, using the method of Leyton J, Smith G, Zhao Y, et al. [18F]fluoromethyl-[1, 2-2H4]-choline: a novel radiotracer for imaging choline metabolism in tumors by positron emission tomography. Cancer Res. 2009; 69:7721-7728. A μBondapak C18 HPLC column (Waters, Milford, Mass., USA; […]), stationary phase and a mobile phase comprising of Solvent A (vide supra) and Solvent B (acetonitrile/water/ethanol/acetic acid/1.0 M ammonium acetate/0.1 M sodium phosphate (400/400/68/44/88/10)), delivered at a flow rate of 3 mL/min were used for analyte separation. The gradient was set as follows: 0% B for 5 min; 0% to 100% B in 10 min; 100% B for 0.5 min; 100% to 0% B in 2 min; 0% B for 2.5 min.
A 2-tissue irreversible compartmental model was employed to fit the TACs, as has been previously established for ^11C-choline (Kenny L M, Contractor K B, Hinz R, et al. Reproducibility of [11C]choline-positron emission tomography and effect of trastuzumab. Clin Cancer Res. Aug. 15 2010; 16(16):4236-4245; and Sutinen E, Nurmi M, Roivainen A, et al. Kinetics of [(11)C]choline uptake in prostate cancer: a PET study. Eur J Nucl Med Mol. Imaging. March 2004; 31(3):317-324). An estimate of the whole blood TAC (wbTAC(t)) was derived from the PET image itself, as described above. […] Therefore it was fitted with a sum of 3 exponentials from the peak on and the fitted function was used as input function in the kinetic modeling (after metabolite correction, see below). […] The pf values were fitted to a sum of two exponentials with the constraint pf(t=0)=1 to obtain the function pf(t).

[3] = tested on: human melanoma SKMEL-28 xenografts; details: mouse, in vivo
Description: Dynamic [^18F]FCH and [^18F]D4-FCH imaging scans were carried out on a dedicated small animal PET scanner, quad-HIDAC (Oxford Positron Systems). The features of this instrument have been described previously (Barthel, H., et al., Cancer Res 2003; 63(13):3791-8). For scanning the tail veins, vehicle- or drug-treated mice were cannulated after induction of anesthesia (isofluorane/O2/N2O). The animals were placed within a thermostatically controlled jig (calibrated to provide a rectal temperature of ˜37° C.) and positioned prone in the scanner. [^18F]FCH or [^18F]D4-FCH (2.96-3.7 MBq) was injected via the tail vein cannula and scanning commenced. Dynamic scans were acquired in list mode format over a 60 min period as reported previously (Leyton, J., et al., Cancer Research 2006; 66(15):7621-9). The acquired data were sorted into 0.5 mm sinogram bins and 19 time frames (0.5×0.5×0.5 mm voxels; 4×15, 4×60, and 11×300 s) for image reconstruction, which was done by filtered back-projection using a two-dimensional Hamming filter (cutoff 0.6). The image data sets were visualized using the Analyze software (version 6.0; Biomedical Imaging Resource, Mayo Clinic). Cumulative images of 30 to 60 min dynamic data were used for visualization of radiotracer uptake and to draw regions of interest. Regions of interest were defined manually on five adjacent tumor regions (each 0.5 mm thickness). Dynamic data from these slices were averaged for each tissue (liver, kidney, muscle, urine, and tumor) and at each of the 19 time points to obtain time versus radioactivity curves. Corresponding whole body time versus radioactivity curves representing injected radioactivity were obtained by adding together radioactivity in all 200×160×160 reconstructed voxels. Tumor radioactivity was normalized to whole-body radioactivity and expressed as percent injected dose per voxel (% ID/vox). The normalized uptake of radiotracer at 60 min (% ID/vox60) was used for subsequent comparisons. The average of the normalized maximum voxel intensity across five slices of tumor % IDvox60max was also use for comparison to account for tumor heterogeneity and existence of necrotic regions in tumor. The area under the curve was calculated as the integral of % ID/vox from 0 to 60 min.

[2H]C([2H])(O)C([2H])([2H])[N+](C)(C)C[18F] [[^18F]D4-FCH, [^18F]fluoromethyl-[1,2-^2H4]-choline]
conversion to betaine metabolite in plasma [1]: ~40% | liver radioactivity as betaine [2]: 15.0±3.6% | liver radioactivity present as phosphocholine [2]: ~80% | plasma radioactivity in the form of betaine [2]: 43.7±12.4% | resistance to oxidation in the kidney [2]: more resistant to oxidation | % IDvox60max (average of maximum pixel % ID/vox60 across 5 slices) [3]: significantly higher | tumor area under the time versus radioactivity curve (AUC) [3]: higher
